Measurements reported in patent publication US20240279201A1, “DUAL WNT SIGNALING PATHWAY INHIBITORS AND AMPK ACTIVATORS FOR TREATMENTS OF DISEASE” (priority 2021, published 2024).

Legend:
CRC cells = conditions: as reported in literature; cited from earlier work
[1] = test system: Wnt/β-Catenin signaling pathway; assay: Wnt signaling luciferase (TOPflash) reporter gene assay; format: cell-based; conditions: for IC50: luciferase reporter gene assay, mean of three independent experiments, read-out: IC50 (nM) to inhibit the Wnt signaling activity
Excerpt: A dual-luciferase gene reporter assay was used to test inhibitory activities of new compounds on Wnt signaling. […] Therefore, the effects of new compounds on AMPK was examined. […]

[2] = Cytotoxicity (CC50) during the luciferase gene reporter assay; format: cell-based; conditions: human, HEK293 cells; short treatment duration of the luciferase gene reporter assay
[3] = test system: Wnt signaling in SW480 cells; assay: Luciferase gene reporter (TOPflash) assay in SW480 cells; format: cell-based, human
HEK293 cells = assay: Cytotoxicity (CC50) during the luciferase gene reporter assay; format: cell-based; conditions: short treatment duration of the luciferase gene reporter assay
AMPK [4] = assay: AMPK activation in SW620 cells (immunoblotting); format: cell-based
Procedure: HEK293 cells were stained with anti-axin-1 or DAPI and studied under fluorescence microscopy. FIG. 26B is an image illustrating enhanced AMPK phosphorylation by Axin overexpression (empty pcDNA3 vs. pcDNA3-Axin-1) in HEK293 cells. […] See FIG. 23A-FIG. 23C for Axin knockdown. […] Cells were treated for 24 h.
Treatment of compound YW2049 indicated no effects on total protein levels of AMPK and ACC in SW620 cells.
The effects of FX analogs in Axin stabilization and AMPK activation were further studied by genetic manipulation of Axin. Axin overexpression led to enhanced AMPK activation (FIG. 26A and FIG. 26B). In contrast, it has been reported that knockdown of Axin in cells and in mouse liver impairs AMPK activation. […] This timeline is consistent with the reports that Axin can form a complex with AMPK.

physchem = conditions: water, aqueous solubility
Procedure: (§1) The ADMET and PK properties of YA6060 was determined.
Determination of physiochemical properties. The profiles of six selected analogs is estimated in silico, and selected Axin stabilizers are evaluated in in vitro assays: the aqueous solubility is determined using a multiscreen solubility filter plate (Millipore, Billerica, MA) coupled with LC-MS/MS, as performed for the already synthesized YA6060 analogs; the cell viability assays on selected analogs is measured using HEK293 cells; the intestinal permeability by determining the transport from the apical to the basolateral (A to B) in Caco-2 monolayers; the metabolic stability by incubating the compounds with mouse microsomes and liver tissue S9 fraction and analyzing by LC-MS/MS.

in vivo = conditions: C57/BL6, mouse, in vivo, po
Procedure: as §1
PK/Tox. The four selected compounds from in vitro evaluation above are subjected to PK and toxicity assessment in C57/BL6 mice. […] Compound concentrations is determined by LC/MS/MS. PK analysis is carried out on Phoenix Winnolin using non-compartmental analysis and compartment models. Compound accumulation in major tissues, including liver, kidney, heart, brain and intestine, are quantified. […] For study ii, a half number of mice per group are sacrificed immediately after the 3-week course and the remaining after a 2-week washout period to assess delayed toxicity. In toxicity studies, blood is collected upon euthanasia for liver and renal chemistries and complete blood counts, and major organs harvested and examined macro- and microscopically by veterinarian pathologists. It is expected that an understanding of PK properties, such as bioavailability, AUC, clearance, and toxic effects, such as general tolerance and specific toxicity in the liver, kidney, other major organs, and particularly Wnt-dependent tissues, such as intestine, stomach, and skin is established for these selected compounds.

[5] = test system: Wnt signaling in SW620 cells; assay: Luciferase gene reporter (TOPflash) assay in SW620 cells; format: cell-based; conditions: Homo sapiens, SW-620, read-out: IC50, inhibition of Wnt signaling
HT29 cells = assay: Viability of HT29 cells; format: cell-based; conditions: Homo sapiens, HT-29, read-out: IC50, cell viability
AMPK [6] = assay: Western blotting of phosphorylated AMPK in HEK293 cells; format: cell-based; conditions: 100 nM, 24 h
Procedure: (§2) FIG. 6A-FIG. 6E illustrate the development of Axin stabilizers with dual activities of Wnt inhibition and AMPK activation. […] HEK293 cells were used. B&C: 100 nM compounds, 24 h. FIG. 6D is a table showing the activity profile of YA6060. F=bioavailability; soubility is aqueous solubility.
(§3) A dual-luciferase gene reporter assay was used to test inhibitory activities of new compounds on Wnt signaling. […] Axin is also reported to form a complex with AMPK and its upstream kinase LKB1 (FIG. 12A and FIG. 12B) to facilitate AMPK activation. Therefore, the effects of new compounds on AMPK was examined. […] YA6060 and its analogs had dual activities of potent Wnt signaling inhibition and AMPK activation, which were dependent on the levels of scaffolding protein Axin.

β-catenin = β-catenin (Homo sapiens (Human), UniProt P35222); assay: Western blotting of β-catenin in HEK293 cells; format: cell-based; conditions: 100 nM, 24 h
Procedure: as §2, §3

Axin 1 = Axin 1 (Homo sapiens (Human), UniProt O15169); assay: Western blotting of Axin 1 in HEK293 cells; format: cell-based; conditions: 100 nM, 24 h
Procedure: as §2, §3

[7] = test system: SW480, SW620, and HT29 cells; assay: Colony formation assay; format: cell-based
Excerpt: FIG. 23A is an image illustrating a colony formation assay. […] The orange circle indicates cells in early apoptosis.

SW620 xenograft = SW620 xenograft in nude mice; format: in vivo
RPS6KA3 = RPS6KA3 (Homo sapiens (Human), UniProt P51812); assay: Off-target kinase panel, RPS6KA3; conditions: read-out: inhibition of RPS6KA3
RPS6KA3, sequence (P51812 whole entry, species assumed): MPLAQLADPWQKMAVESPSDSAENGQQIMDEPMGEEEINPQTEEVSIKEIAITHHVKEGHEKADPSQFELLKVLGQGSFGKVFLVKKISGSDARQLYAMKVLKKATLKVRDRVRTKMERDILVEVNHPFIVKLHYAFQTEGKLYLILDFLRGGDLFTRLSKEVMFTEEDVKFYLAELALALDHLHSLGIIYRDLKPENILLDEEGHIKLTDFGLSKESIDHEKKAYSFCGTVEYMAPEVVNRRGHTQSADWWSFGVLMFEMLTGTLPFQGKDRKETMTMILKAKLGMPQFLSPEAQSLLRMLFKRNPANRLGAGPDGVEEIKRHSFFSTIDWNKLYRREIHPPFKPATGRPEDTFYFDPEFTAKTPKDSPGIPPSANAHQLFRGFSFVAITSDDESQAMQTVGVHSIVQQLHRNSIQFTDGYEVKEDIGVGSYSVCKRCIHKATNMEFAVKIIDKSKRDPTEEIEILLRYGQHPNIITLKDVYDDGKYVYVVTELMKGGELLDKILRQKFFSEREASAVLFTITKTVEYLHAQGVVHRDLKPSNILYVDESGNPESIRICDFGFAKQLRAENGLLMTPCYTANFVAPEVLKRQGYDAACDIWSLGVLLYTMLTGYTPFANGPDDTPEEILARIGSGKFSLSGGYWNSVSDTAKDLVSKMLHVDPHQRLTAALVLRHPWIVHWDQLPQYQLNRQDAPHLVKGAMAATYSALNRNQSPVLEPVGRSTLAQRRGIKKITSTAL

SW480 cells = assay: Mitochondrial function in SW480 cells

**Q.** For `O=c1[nH]cc(F)c(=O)[nH]1` [5-FU], which “IC50 in killing CRC cells” value (CRC cells) is on record?
**A.** Its value is “low μM”.

**Q.** Which inhibition at 1 µM [1] does the source give for `Oc1nc(-c2ccc(C(F)(F)F)cc2)nc2c1CSCC2` [XAV939, reference compound] here?
**A.** Its inhibition at 1 µM is 74%.

**Q.** And the CC50 [2]?
**A.** Its CC50 is > 92000 nM.

**Q.** And the “extent of inhibition of Wnt signaling activity in reporter assays” value [3]?
**A.** Its value is “could not fully inhibit Wnt signaling activity”.

**Q.** With `Cc1ccccc1-n1nnc(C(=O)Nc2ccc3cc(CN4CCNCC4)ccc3n2)c1C` [YA10951, 5-Methyl-N-(6-(piperazin-1-ylmethyl)quinolin-2-yl)-1-(o-tolyl)-1H-1,2,3-triazole-4-carboxamide] as the compound, how does the IC50 [1] read?
**A.** The IC50 was 4.3 nM.

**Q.** And the CC50 (HEK293 cells)?
**A.** Its CC50 is > 92000 nM.

**Q.** Which results are given for `O=C(Nc1ccc2ccccc2n1)c1nnn(-c2ccccc2Cl)n1` [YA70033, 2-(2-Chlorophenyl)-N-(quinolin-2-yl)-2H-tetrazole-5-carboxamide]?
**A.** IC50 [1]: > 1000 nM; CC50 [2]: > 92000 nM

**Q.** What does the source list for `COc1ccccc1-n1nnc(C(=O)Nc2ccc3ccccc3n2)n1` [YA70034, 2-(2-Methoxyphenyl)-N-(quinolin-2-yl)-2H-tetrazole-5-carboxamide]?
**A.** IC50 [1]: > 1000 nM; CC50 [2]: > 92000 nM

**Q.** Which IC50 [1] does the source give for `Cc1ccccc1-n1cc(C(=O)Nc2ccc3ccccc3n2)nn1` [YA70131, N-(Quinolin-2-yl)-1-(o-tolyl)-1H-1,2,3-triazole-4-carboxamide] here?
**A.** The IC50 was > 1000 nM.

**Q.** And the CC50 [2]?
**A.** Its CC50 is > 92000 nM.

**Q.** With `Cc1ccccc1-n1nnc(C(=O)Nc2ccc3ccccc3n2)c1C` [YW1128] as the compound, how does the p-AMPK levels (AMPK [4]) read?
**A.** Its p-AMPK levels is “increased”.

**Q.** With `Cc1c(C(=O)Nc2ccc3ccccc3n2)cnn1-c1ccccc1Br` [YW2065] as the compound, how does the CC50 [2] read?
**A.** The CC50 was > 92000 nM.

**Q.** What about the solubility (physchem) of the same compound?
**A.** Its solubility is < 10 µg/mL.

**Q.** What about the bioavailability (in vivo) of the same compound?
**A.** Its bioavailability is 13%.

**Q.** And the “extent of inhibition of Wnt signaling activity in reporter assays” value [3]?
**A.** Its value is “could abolish Wnt activity at high concentrations”.

**Q.** And the IC50 ([3]; Homo sapiens, read-out: IC50, inhibition of Wnt signaling)?
**A.** The IC50 was 1.2 nM.

**Q.** And the IC50 [5]?
**A.** Its IC50 is 0.19 nM.

**Q.** What about the IC50 (HT29 cells) of the same compound?
**A.** Its IC50 is 17000 nM.

**Q.** And the “levels of phosphorylated AMPK (p-AMPK)” value (AMPK [6])?
**A.** Its value is “significantly increased”.

**Q.** What about the “protein level of β-catenin” value (β-catenin) of the same compound?
**A.** The value was “decreased”.

**Q.** What about the “level of Axin 1” value (Axin 1) of the same compound?
**A.** The value was “stabilizing”.

**Q.** What about the colony formation [7] of the same compound?
**A.** Its colony formation is “inhibited the colony formation”.

**Q.** What about the “tumor growth and tumor weight” value (SW620 xenograft; i.p. each day, dose-dependent) of the same compound?
**A.** Its value is “reduced both tumor growth”.

**Q.** And the body weight gain (SW620 xenograft; mouse, in vivo)?
**A.** Its body weight gain is “not affected”.

**Q.** And the p-AMPK levels (AMPK [4])?
**A.** Its p-AMPK levels is “increased”.

**Q.** And the inhibition at 1000 µM (RPS6KA3)?
**A.** Its inhibition at 1000 µM is 39%.

**Q.** What about the “O2 consumption rate and ATP production” value (SW480 cells) of the same compound?
**A.** The value was “reduced O2 consumption rate”.

**Q.** With `O=C1[O][Pt]2([NH][C@@H]3CCCC[C@H]3[NH]2)[O]C1=O` [oxaliplatin] as the compound, how does the “IC50 in killing CRC cells” value (CRC cells) read?
**A.** Its value is “low μM”.
